According to patent US7968535B2, “Use of azapaullones for preventing and treating pancreatic autoimmune disorders” (Develogen Atkiengesellschaft, priority 2005, dated 2011):

Tests used:
Type in all cases: cell-based, rat
INS-1E cells [1] = experiment: Ins-1E cell proliferation assay (BrdU incorporation); settings: maximum at 1 μM
Experimental: The proliferation rate of Ins-1E cells was determined by monitoring DNA synthesis using a 5-bromo-2′-deoxyuridine (BrdU) incorporation assay. BrdU is a halogenated nucleotide analogue of thymidine that is incorporated into DNA during the S-phase of the cell cycle. Pulse-labeling of DNA with BrdU and subsequent immunohistochemical detection of labeled nuclei was used to study the rate of cell proliferation. The treatment of INS-1E cells with 4-Azakenpaullone for 24 hours increases BrdU incorporation of Ins-1E cells in a concentration dependent manner, reaching a maximum of about 1.4 fold between 5 μM and 10 μM 4-AKP.
The proliferation of Ins-1E insulinoma cells was determined by monitoring DNA synthesis as an indirect parameter of cell proliferation. The incorporation of the thymidine analogue 5-bromo-2′-deoxyuridine (BrdU) during replication into cellular DNA was used to label the DNA of mitotically active cells. After its incorporation into DNA, BrdU was detected by immunoassay.
(§1) 10,000 Ins-1E cells were seeded per 96-well (black 96-well tissue culture plates, Falcon #353948) in 100 μl culture medium (RPMI 1640 containing 11 mM glucose, 5% FCS, 10 mM HEPES, 50 μM 2-mercaptoethanol, 1 mM MEM sodium pyruvate, 100 U/ml penicillin, 100 μg/ml streptomycin) and cultivated at 37° C., 5% CO2 in humidified atmosphere for 3 days. Media was changed to 100 μl starvation medium (culture medium with only 5 mM glucose, 1% FCS) and the cells were re-incubated for 1 day. Then media was exchanged to starvation medium containing test substances and the cells were further incubated for 24 h. For the last 4 hours BrdU was added to reach a concentration of 10 μM. Cell proliferation ELISA (Cell Proliferation ELISA, BrdU, chemiluminescence, Roche, cat. No. 1669915) was performed according to the manufacturers guidelines.

Pax4 gene = experiment: Pax4 transcription by quantitative real time RT-PCR
Experimental: FIG. 11 illustrates a representative experiment in which the relative Pax4 levels were quantified using quantitative real time RT-PCR. […] Data are presented as relative levels to the basal Pax4 expression level in INS-1E cells only treated with the vehicle (Co.). Activin-A (1 nM) treated INS-1E cells serve as a positive control.
The response of the Pax4 gene to test compounds was investigated in the rat insulinoma cell line INS-1E. INS-1E cells are known to express Pax4 and to upregulate Pax4 levels in response to the treatment with activin-A and betacellulin. In the search for novel beta cell mitogens and/or beta cell protective agents the inventors treated INS-1E cells with test compound 10c. Compound 10c induces the relative Pax4 expression about 5-fold compared to the control and compared to 1 nM activin A (FIG. 11).
INS-1E cells were cultured as described (Merglen, (2004) Endocrinology; 145: 667-678). Cells were seeded at a density of 2×10^4 cells per cm^2 6 to 8 days before the treatment with chemicals. During the growth period the medium was changed once. […]
Total RNA from 8×10^4 cells growing on 4 cm^2 surface area of a tissue culture dish was extracted using Qiagen RNAeasy kit according to the instructions of the manufacturer (Qiagen) and 2 μg was converted into cDNA. […] Quantitative real-time PCR was performed using Applied Biosystems SDS 7000 detection system. […]

INS-1E cells [2] = experiment: Glucolipotoxicity induced apoptosis of INS-1E cells (overall assessment); settings: palmitate and glucose, 24 hours
Experimental: The effects of the substance on cell viability, cell growth and specific apoptotic events such as caspases activity and DNA-fragmentation was monitored. INS-1E cell apoptosis was induced by treatment of cell cultures with toxic concentrations of glucose and palmitate for 24 hours. The substance of interest was added to the medium 1 hour prior to the addition of the toxic agents.
The effects of the test compounds on beta cell function were assessed using biological assays monitoring cellular metabolic activity as well as specific apoptotic events in Ins-1E cells.
as §1, with “substances.” for “substances and the cells were further incubated for 24 h. For the last 4 hours BrdU was added to reach a concentration of 10 μM. Cell proliferation ELISA (Cell Proliferation ELISA, BrdU, chemiluminescence, Roche, cat. No. 1669915) was performed according to the manufacturers guidelines.”
Apoptosis of Ins-1E cells was induced by addition of a combination of BSA coupled palmitate and glucose (pal/gluc) or a combination of cytokines (cyt) 1 hour after starting the treatment with test substances: pal/gluc: 0.3 mM palmitate:BSA (palmitic acid sodium salt:fatty acid free BSA 6:1) and 25 mM glucose. 10×cyt: 0.04 ng/ml IL-1β and 1 ng/ml IFNγ. The cells were further incubated with test substances and apoptotic inducer for 24 hours.

SMILES: N#Cc1ccc2[nH]c3c(c2c1)CC(=O)Nc1cccnc1-3 [Compound 10c, 6-Oxo-5,6,7,12-tetrahydropyrido[3′,2′:2,3]azepino[4,5-b]indole-9-carbonitrile]
- BrdU incorporation relative to untreated controls (maximum) (INS-1E cells [1]): about 1.5 fold
- Pax4 gene transcription (Pax4 gene; 2 μM): transiently induce Pax4 gene transcription
- relative Pax4 expression compared to the control (Pax4 gene; INS-1E cells, vehicle control): about 5 fold
- effect on glucolipotoxicity induced apoptosis (INS-1E cells [2]): strongly antagonizes glucolipotoxicity induced apoptosis
